In patent US9539303B2, “Treatment of Ras-expressing tumors” (Celgene Corporation, priority 2006, dated 2017):
“And” between values parts separate entries of the source, which are not always exact repeats. Equal entries are not always repeated.

How the values were obtained:
[1] = Animal weight and drug toxicity, BxPC-3 study
From the text: (§1) Model Information—Female nude mice (nu/nu) between 5 and 6 weeks of age weighing approximately 20 grams were obtained from Harlan, Inc. (Madison, Wis.). PANC-1, obtained from the ATCC, is a pancreas tumor cell line originating from a person^(1-2). BxPC-3, obtained from the American Type Culture Collection (ATCC), is a pancreas tumor cell line originating from a person^(3-4). PANC-1 Study: Animals were implanted subcutaneously (SC) by trocar with fragments of PANC-1 harvested from SC growing tumors in nude mice hosts. When tumors grew to approximately 135 cubic millimeters (mm^3) in size (17 days following implantation, animals were pair-matched by tumor size into treatment and control groups; each treatment group contained nine mice. BxPC-3 Study: Animals were implanted subcutaneously (SC) by trocar with fragments of BxPC-3 harvested from SC growing tumors in nude mice hosts. When tumors grew to approximately 85 cubic millimeters (mm^3) in size (19 days following implantation), animals were pair-matched by tumor size into treatment and control groups; each treatment group contained nine mice. Animals in both studies were ear-tagged and followed individually throughout the experiment.
(§2) Study Design and Dosing—Initial doses were administered on Day 1 following pair-matching; both experiments were carried out as tumor growth inhibition (TGI) studies. Animals were dosed intravenously (IV) via tail vein with FK228 once every four days for three treatments (Q4Dx3) or by intraperitoneal (IP) injection with gemcitabine once every three days for four treatments (Q3Dx4), either alone or in combination, at the doses listed below (Table 1). To serve as a negative control, FK228 vehicle (2% ethanol, 8% propylene glycol, 90% 0.9% saline) was injected on a Q4Dx3 schedule.
(§3) Animal Weights—Individual and group mean weights±SD and percent weight change through Day 25 (PANC-1) or Day 29 (BxPC-3) were recorded twice weekly until study completion beginning Day 1. Final group mean weights±SD and group nadir values are reported; weight data from individual animals experiencing technical or drug-related deaths was censored from final group calculations.
(§4) Moribundity/Mortality—Animals were observed twice weekly for general moribundity and daily for mortality. Animal deaths were assessed as drug-related or technical based on factors including gross observation and weight loss; reported animal death information includes type, number, and day of death for each group.

c-Myc = experiment: Tissue biomarker immunoblotting of PANC-1 xenograft tumors: c-Myc; format: in vivo; conditions: PANC-1 tumors at study completion; FK228 5 mg/kg Q4Dx3, gemcitabine 80 mg/kg Q3Dx4, or both; actin-normalized vs control
Method: (§5) Specimen Collection: […] Tumor xenograft tissue and serum specimens were obtained from in vivo studies performed by the Preclinical Research Laboratory at the completion of the experiments. […] Serum was obtained from whole blood and stored frozen at -70° C. Tissue Biomarkers: Tumor levels of acetylated histone-4, histone-4, […] were quantified by immunoblotting as described. Briefly, frozen tissue was pulverized under liquid nitrogen and homogenized in hypotonic lysis buffer. Small aliquots of the extracts were used for analysis of protein concentration by micro-BCA assay with bovine serum albumin as a protein standard. An equal amount of extracts containing about 20-50 μg protein was electrophoresed in SDS polyacrylamide gels. Proteins were transferred to ImmunoBlot PVDF membrane and were probed with appropriate primary and secondary antibodies. The chemiluminescence signal was captured by autoradiography, quantified by densitometry and expressed as a ratio of actin in each sample lane. For each biomarker, means and standard errors were calculated in each treatment group. […] Following quantitative analysis of biomarker levels in each sample, the results were normalized for b-actin and expressed as percentages of untreated controls. […]

[2] = test system: PANC-1 human pancreatic tumor xenograft; experiment: PANC-1 human pancreatic tumor xenograft tumor growth inhibition study (Example 3); format: in vivo, female nude mice (nu/nu); conditions: for % TGI / Final tumor volume mean ± SEM: Day 25
From the text: (§6) (Madison, Wis.). […] Tumor measurements were converted to cubic millimeter tumor volume using the formula^(5): […] TGI values for each treatment group are reported at study completion; these calculations are based on the final study day. […] Individual mice lacking palpable tumors were classified as undergoing complete regression (CR). Animals experiencing partial or complete tumor regressions were censored from TGI calculations. However, data from these animals was included in statistical analysis calculations. In addition, weight data from these animals was included in daily and final group calculations. Tumor Necrosis-Degree of tumor necrosis was rated at each tumor measurement using the following arbitrary index: […]

acetylated histone 4 = experiment: Tissue biomarker immunoblotting of PANC-1 xenograft tumors: acetylated histone 4; format: in vivo; conditions: PANC-1 tumors at study completion; FK228 5 mg/kg Q4Dx3, gemcitabine 80 mg/kg Q3Dx4, or both
Method: as §5

[3] = Animal weight and drug toxicity, PANC-1 study
From the text: as §1, §2, §3, §4

acetylated histone 3 = experiment: Tissue biomarker immunoblotting of PANC-1 xenograft tumors: acetylated histone 3; format: in vivo; conditions: PANC-1 tumors at study completion; FK228 5 mg/kg Q4Dx3, gemcitabine 80 mg/kg Q3Dx4, or both
Method: as §5

[4] = test system: BxPC-3 human pancreatic tumor xenograft; experiment: BxPC-3 human pancreatic tumor xenograft tumor growth inhibition study (Example 3); format: in vivo, female nude mice (nu/nu); conditions: for % TGI / Final tumor volume mean ± SEM: Day 29
From the text: as §6

[5] = test system: transformed (H, K, N-Ras and the rat Her-2/NeuT) NIH-3T3 cells; experiment: 4-day proliferation assay, transformed NIH-3T3 cell lines; format: cell-based, mouse; conditions: 2 nM romidepsin
Method: A series of transformed NIH-3T3 cell likes were generated and a proliferation assay was performed in the presence of 2, 3, or 4 nM romidepsin. FIG. 23 illustrates the transformed morphology of the cells. FIG. 24 presents graphs of cell proliferation.

[6] = FK228 2.5 mg/kg IV Q4Dx3, 2.5 mg/kg
[7] = FK228 5 mg/kg IV Q4Dx3, 5 mg/kg
[8] = PANC-1 study, FK228 2.5 mg/kg IV Q4Dx3
[9] = PANC-1 study, FK228 2.5 mg/kg IV Q4Dx3, 2.5 mg/kg
[10] = PANC-1 study, FK228 5 mg/kg IV Q4Dx3
[11] = PANC-1 study, FK228 5 mg/kg IV Q4Dx3, 5 mg/kg
[12] = BxPC-3 study, FK228 2.5 mg/kg IV Q4Dx3
[13] = BxPC-3 study, FK228 2.5 mg/kg IV Q4Dx3, 2.5 mg/kg
[14] = BxPC-3 study, FK228 5 mg/kg IV Q4Dx3
[15] = BxPC-3 study, FK228 5 mg/kg IV Q4Dx3, 5 mg/kg

C/C=C1\NC(=O)[C@H]2CSSCC/C=C/[C@H](CC(=O)N[C@H](C(C)C)C(=O)N2)OC(=O)[C@H](C(C)C)NC1=O [FK228, romidepsin]
Final weight data % change ([1]; Day 29, FK228 2.5 mg/kg IV Q4Dx3): +10% | Final weight data mean ± SD ([1]; Day 29, FK228 2.5 mg/kg IV Q4Dx3, 2.5 mg/kg): 25±2 G | Final weight data % change ([1]; Day 29, FK228 5 mg/kg IV Q4Dx3): +7% | Final weight data mean ± SD ([1]; Day 29, FK228 5 mg/kg IV Q4Dx3, 5 mg/kg): 24±1 G | Weight nadir % change ([1]; FK228 2.5 mg/kg IV Q4Dx3): −5% | Weight nadir day ([1]; FK228 2.5 mg/kg IV Q4Dx3): 11 | Drug deaths total [1, 6]: 0/9 and 0 | Weight nadir % change ([1]; FK228 5 mg/kg IV Q4Dx3): −15% | Weight nadir day ([1]; FK228 5 mg/kg IV Q4Dx3): 11 | Drug deaths total [1, 7]: 0/9 and 0 | extent of inhibition of c-Myc expression (c-Myc): 50% | % TGI [2, 8]: 26% | Final tumor volume mean ± SEM [2, 9]: 1688±290 MM^3 | % TGI [2, 10]: 26% | Final tumor volume mean ± SEM [2, 11]: 1690±290 MM^3 and 1690 ± 331 MM^3 | Activity according to NCI standards [2, 8]: inactive | Tumor necrosis [2, 8]: 1/9 animals reported slight tumor necrosis, 1/9 reported mild tumor necrosis, 2/9 reported moderate necrosis, and 1/9 reported severe necrosis | #PR/CR [2, 9]: 0/9 and 0/0 | Activity according to NCI standards [2, 10]: inactive | Tumor necrosis [2, 10]: 2/9 animals reported slight tumor necrosis, and 1/9 reported moderate necrosis | #PR/CR [2, 11]: 0/9 and 0/0 | calculated TGI values ([2]; PANC-1 study, at the evaluated doses and schedules): less than 58% | antitumor activity (overall conclusion) ([2]; ras-transformed PANC-1 model, all evaluated doses): some activity | levels of acetylated histone 4 vs control (acetylated histone 4): over 2 fold | Final weight data % change ([3]; Day 25, FK228 2.5 mg/kg IV Q4Dx3): +8% | Final weight data mean ± SD ([3]; Day 25, FK228 2.5 mg/kg IV Q4Dx3, 2.5 mg/kg): 23±2 G | Final weight data % change ([3]; Day 25, FK228 5 mg/kg IV Q4Dx3): +9% | Final weight data mean ± SD ([3]; Day 25, FK228 5 mg/kg IV Q4Dx3, 5 mg/kg): 25±2 G | Weight nadir % change ([3]; FK228 2.5 mg/kg IV Q4Dx3): −9% | Weight nadir day ([3]; FK228 2.5 mg/kg IV Q4Dx3): 11 | Drug deaths total [3, 6]: 0/9 and 0 | Weight nadir % change ([3]; FK228 5 mg/kg IV Q4Dx3): −12% | Weight nadir day ([3]; FK228 5 mg/kg IV Q4Dx3): 11 | Drug deaths total [3, 7]: 0/9 and 0 | acetylation of histone 3 (acetylated histone 3): not affected | % TGI [4, 12]: No TGI | Final tumor volume mean ± SEM [4, 13]: 2440±643 mm^3 | % TGI [4, 14]: No TGI | Final tumor volume mean ± SEM [4, 15]: 2620±238 mm^3 | Activity according to NCI standards [4, 12]: inactive | Tumor necrosis [4, 12]: 2/9 animals reported mild tumor necrosis | #PR/CR [4, 13]: 0/9 and 0/0 | Activity according to NCI standards [4, 14]: inactive | Tumor necrosis [4, 14]: 2/9 animals reported mild tumor necrosis | #PR/CR [4, 15]: 0/9 and 0/0 | calculated TGI values ([4]; BxPC-3 study, at the evaluated doses and schedules): No tumor growth inhibition | antitumor activity (overall conclusion) ([4]; wildtype ras BxPC-3, all evaluated doses): inactive | inhibition of proliferation, transformed vs untransformed cells [5]: selectively inhibited
